From ChEMBL document CHEMBL5053544, “Microbial transformation of pentacyclic triterpenes for anti-inflammatory agents on the HMGB1 stimulated RAW 264.7 cells by Streptomyces olivaceus CICC 23628” (Bioorg Med Chem, 2021) come the findings set out here.

Where only a bound is given, the exact number is not on record here.

This assay has as its system RAW264.7. Briefly: Antiinflammatory activity against mouse RAW264.7 cells assessed as inhibition of HMGB1-induced NO production pretreated with compounds for 15 mins followed by HMGB1 stimulation measured after 24 hrs by Griess reagent based assay. In kind it is functional, cell-based. In general terms: The Griess reaction detects nitrite, a stable product of nitric oxide.

For the compound `CC(O)(CO)[C@@H]1CC[C@]2(C)[C@H](CC=C3[C@@H]4C[C@@](C)(CO)C[C@@H](O)[C@]4(C)CC[C@]32C)[C@@]1(C)CCC(=O)O` (some centres not stated), the IC50 is > 100 µM.

With `C=C(C)[C@@H]1CC[C@]2(C(=O)O)CC[C@]3(C)[C@H](CC[C@@H]4[C@@](C)(CCC(=O)OC)[C@H](C(C)(C)O)CC[C@]43C)[C@@H]12`, the IC50 is > 100 µM.

For the compound `CC1(C)C[C@H]2C3=CC[C@@H]4[C@@](C)(CCC(=O)O)[C@H]([C@](C)(O)CO)CC[C@@]4(C)[C@]3(C)CC[C@@]2(C)[C@H](O)[C@@H]1O`, the IC50 is > 100 µM.

As for `C=C(CO)[C@@H]1CC[C@]2(C(=O)O)CC[C@]3(C)[C@H](CC[C@@H]4[C@@](C)(CCC(=O)O)[C@H](C(C)(C)O)CC[C@]43C)[C@@H]12`, the IC50 is > 100 µM.

With `COC(=O)CC[C@@]1(C)[C@H]([C@](C)(O)CO)CC[C@]2(C)[C@@H]1CC=C1[C@@H]3C[C@@](C)(CO)C[C@@H](O)[C@]3(C)CC[C@]12C`, the IC50 was > 100 µM.

With `C=C(C)[C@@H]1CC[C@]2(C(=O)O)CC[C@]3(C)[C@H](CC[C@@H]4[C@@](C)(CCC(=O)O)[C@H](C(C)(C)O)CC[C@]43C)[C@@H]12`, the IC50 was > 100 µM.

On to `CC1(C)C[C@H]2C3=CC[C@@H]4[C@@](C)(CCC(=O)O)[C@H]([C@](C)(O)CO)CC[C@@]4(C)[C@]3(C)C[C@@H](O)[C@@]2(CO)[C@@H](O)[C@@H]1O`, for which the IC50 was > 100 µM.

As for `C[C@@]1(CO)C[C@H]2C3=CC[C@@H]4[C@@](C)(CCC(=O)O)[C@H]([C@](C)(O)CO)CC[C@@]4(C)[C@]3(C)CC[C@@]2(C)[C@H](O)[C@@H]1O`, the IC50 is > 100 µM.

For the compound `CC1(C)C[C@H]2C3=CC[C@@H]4[C@@](C)(CCC(=O)O)[C@H]([C@](C)(O)CO)CC[C@@]4(C)[C@]3(C)CC[C@@]2(C)[C@H](O)[C@H]1O`, the IC50 amounted to 15.9 µM.

For `CC1(C)C[C@@H](O)[C@]2(C)CC[C@]3(C)C(=CC[C@@H]4[C@@](C)(CCC(=O)O)[C@H]([C@](C)(O)CO)CC[C@]43C)[C@@H]2C1`, the IC50 is > 100 µM.

With `C=C(CO)[C@@H]1CC[C@]2(C(=O)O)CC[C@]3(C)[C@H](CC[C@@H]4[C@@](C)(CCC(=O)OC)[C@H](C(C)(C)O)CC[C@]43C)[C@@H]12`, the IC50 is > 100 µM.

On to `C[C@@]1(CO)C[C@@H](O)[C@]2(C)CC[C@]3(C)C(=CC[C@@H]4[C@@](C)(CCC(=O)O)[C@H]([C@](C)(O)CO)CC[C@]43C)[C@@H]2C1`, for which the IC50 is > 100 µM.

Consider `C[C@]1(CO)C[C@H]2C3=CC[C@@H]4[C@@](C)(CCC(=O)O)[C@H]([C@](C)(O)CO)CC[C@@]4(C)[C@]3(C)CC[C@@]2(C)[C@H](O)[C@@H]1O`, for which the IC50 came out at 36 µM.

`C=C(C)[C@@H]1CC[C@]2(C(=O)O)CC[C@]3(C)[C@H](CC[C@@H]4[C@@]5(C)CC[C@H](O)C(C)(C)[C@@H]5CC[C@]43C)[C@@H]12` [BETULINIC ACID]: the IC50 was > 100 µM.

Turning to `CC1(C)[C@@H](OC(=O)CCC(=O)O)CC[C@]2(C)[C@H]3C(=O)C=C4[C@@H]5C[C@@](C)(C(=O)O)CC[C@]5(C)CC[C@@]4(C)[C@]3(C)CC[C@@H]12` [CARBENOXOLONE], the IC50 turned out to be 11.4 µM.

As for `CC1(C)C[C@H]2C3=CC[C@@H]4[C@@]5(C)CC[C@H](O)[C@](C)(CO)[C@@H]5CC[C@@]4(C)[C@]3(C)CC[C@@]2(C)[C@H](O)[C@@H]1O` [SOYASAPOGENOL A], the IC50 was > 100 µM.

For `CC1(C)C[C@@H](O)[C@]2(C)CC[C@]3(C)C(=CC[C@@H]4[C@@]5(C)CC[C@H](O)[C@](C)(CO)[C@@H]5CC[C@]43C)[C@@H]2C1` [SOYASAPOGENOL B], the IC50 is > 100 µM.

Broadly, the IC50 is the point on the concentration scale where inhibition reaches its midpoint.
